Test results: patent publication US20240208992A1, “MACROCYCLES AS CFTR MODULATORS” (Idorsia Pharmaceuticals Ltd, priority 2021, published 2024)

Target: human F508del-CFTR (Homo sapiens, UniProt P13569, DEL508-508)
Test: F508del-CFTR cell surface expression (corrector activity), DiscoveRx ß-galactosidase complementation chemiluminescence assay in recombinant U2OS cell line;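 also: U2OS cells co-expressing ProLink-tagged F508del-CFTR and a membrane-anchored enzyme acceptor, where more surface CFTR restores β-galactosidase activity measured by chemiluminescence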
Conditions: for EC50: EC50, F508del-CFTR cell surface expression, geomean values; for Emax: U2OS, arithmetic mean values
[1] = U2OS cells, 16h compound incubation
[2] = in relation to Emax of corrector lumacaftor (=100%)
[3] = U2OS cell line, 16h compound incubation
[4] = in relation to the Emax of the corrector lumacaftor (=100%), U2OS cell line, 16h compound incubation

Sequence of human F508del-CFTR (P13569 with tags, fused parts or gaps DEL508-508): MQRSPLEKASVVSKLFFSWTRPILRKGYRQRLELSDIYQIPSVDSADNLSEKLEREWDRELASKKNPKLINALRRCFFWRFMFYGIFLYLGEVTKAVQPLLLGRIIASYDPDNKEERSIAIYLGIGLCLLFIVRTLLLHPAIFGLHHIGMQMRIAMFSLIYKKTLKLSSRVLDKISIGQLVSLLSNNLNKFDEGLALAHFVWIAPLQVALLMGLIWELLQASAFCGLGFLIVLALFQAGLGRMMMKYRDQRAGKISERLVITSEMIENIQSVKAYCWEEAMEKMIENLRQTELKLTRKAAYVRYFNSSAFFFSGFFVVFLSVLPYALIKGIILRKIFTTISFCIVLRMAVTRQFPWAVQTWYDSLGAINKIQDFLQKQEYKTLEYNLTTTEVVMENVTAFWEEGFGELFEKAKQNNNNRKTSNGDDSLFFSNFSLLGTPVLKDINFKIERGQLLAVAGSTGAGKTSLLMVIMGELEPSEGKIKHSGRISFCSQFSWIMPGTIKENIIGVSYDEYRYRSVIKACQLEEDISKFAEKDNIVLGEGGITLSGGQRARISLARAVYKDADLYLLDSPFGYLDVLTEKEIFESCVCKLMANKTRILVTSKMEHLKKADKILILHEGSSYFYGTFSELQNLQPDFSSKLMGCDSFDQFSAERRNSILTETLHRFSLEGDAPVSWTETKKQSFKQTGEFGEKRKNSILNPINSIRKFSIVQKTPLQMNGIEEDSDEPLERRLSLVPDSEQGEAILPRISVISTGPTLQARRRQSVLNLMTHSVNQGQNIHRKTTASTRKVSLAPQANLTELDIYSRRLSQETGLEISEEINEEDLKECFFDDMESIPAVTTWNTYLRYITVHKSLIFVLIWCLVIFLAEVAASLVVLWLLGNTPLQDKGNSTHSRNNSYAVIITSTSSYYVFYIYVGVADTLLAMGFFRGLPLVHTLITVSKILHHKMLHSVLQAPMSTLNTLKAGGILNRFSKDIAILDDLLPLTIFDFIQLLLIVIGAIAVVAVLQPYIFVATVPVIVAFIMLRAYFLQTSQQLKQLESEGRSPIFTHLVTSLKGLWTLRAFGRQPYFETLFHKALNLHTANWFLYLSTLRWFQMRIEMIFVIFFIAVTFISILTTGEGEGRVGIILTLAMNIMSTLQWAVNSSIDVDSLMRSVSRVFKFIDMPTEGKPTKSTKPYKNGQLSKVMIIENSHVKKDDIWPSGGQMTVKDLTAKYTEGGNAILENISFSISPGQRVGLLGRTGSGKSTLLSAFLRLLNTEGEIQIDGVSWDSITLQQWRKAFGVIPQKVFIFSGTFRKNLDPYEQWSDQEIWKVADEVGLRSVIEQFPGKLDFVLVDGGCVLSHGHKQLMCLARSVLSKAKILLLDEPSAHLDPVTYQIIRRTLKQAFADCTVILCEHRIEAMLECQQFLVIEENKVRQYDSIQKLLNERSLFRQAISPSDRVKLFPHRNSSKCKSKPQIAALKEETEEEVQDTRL

| Compound | EC50 [1] | Emax [2] | EC50 [3] | Emax [4] |
| --- | --- | --- | --- | --- |
| COc1nccc2c1C(=O)N[C@H](C(=O)NCCc1noc(C3CC3)n1)CC(=O)N(C)[C@@H](CC(C)C)C(=O)N(C)[C@@H](CC1CCC(F)(F)CC1)C(=O)N[C@H](Cc1ccccc1)CO2 [Example 557, (3R,6S,9S,13S)-3-benzyl-N-(2-(5-cyclopropyl-1,2,4-oxadiazol-3-yl)ethyl)-6-((4,4-difluorocyclohexyl)methyl)-9-isobutyl-16-methoxy-7,10-dimethyl-5,8,11,15-tetraoxo-2,3,4,5,6,7,8,9,10,11,12,13,14,15-tetradecahydropyrido[3,4-p][1]oxa[4,7,10,14]tetraazacycloheptadecine-13-carboxamide] | 594 nM | 253% | – | – |
| CN1C(=O)C[C@@H](C(=O)NCCc2ccc3c(c2)OCO3)NC(=O)c2c(ccc3ccccc23)OC[C@@H](Cc2ccccc2)NC(=O)CN(C[C@@H]2CCCCO2)C(=O)[C@@H]1CC1CCC1 [Example 337, (3S,7S,13R)-N-(2-(benzo[d][1,3]dioxol-5-yl)ethyl)-13-benzyl-7-(cyclobutylmethyl)-6-methyl-1,5,8,11-tetraoxo-9-(((S)-tetrahydro-2H-pyran-2-yl)methyl)-1,2,3,4,5,6,7,8,9,10,11,12,13,14-tetradecahydronaphtho[1,2-p][1]oxa[4,7,10,14]tetraazacycloheptadecine-3-carboxamide] | – | – | 452 nM | 116% |
| Cc1cc(CCNC(=O)[C@@H]2CC(=O)N(C)[C@@H](CC(C)C)C(=O)N3CCOC[C@@H]3C(=O)N[C@H](Cc3ccccc3)COc3ccc4ccccc4c3C(=O)N2)on1 [Example 608, (4aR,7R,18S,22S)-7-benzyl-22-isobutyl-21-methyl-N-(2-(3-methylisoxazol-5-yl)ethyl)-5,16,20,23-tetraoxo-1,2,4,4a,5,6,7,8,16,17,18,19,20,21,22,23-hexadecahydronaphtho[1,2-p][1,4]oxazino[3,4-f][1]oxa[4,7,10,14]tetraazacycloheptadecine-18-carboxamide] | 804 nM | 267% | – | – |
| CC(C)C[C@H]1C(=O)N2CCOC[C@@H]2C(=O)N[C@H](Cc2ccccc2)COc2ccc3ccccc3c2C(=O)N[C@H](C(=O)NCCc2cccc(Br)c2)CC(=O)N1C [Example 378, (4aR,7R,18S,22S)-7-benzyl-N-(3-bromophenethyl)-22-isobutyl-21-methyl-5,16,20,23-tetraoxo-1,2,4,4a,5,6,7,8,16,17,18,19,20,21,22,23-hexadecahydronaphtho[1,2-p][1,4]oxazino[3,4-f][1]oxa[4,7,10,14]tetraazacycloheptadecine-18-carboxamide] | – | – | 45 nM | 138% |
| COc1ccc(CCNC(=O)[C@@H]2CC(=O)N(C)[C@@H](CC(C)C)C(=O)N(CCC3CCCCC3)CC(=O)N[C@H](Cc3ccccc3)COc3cccc(OC)c3C(=O)N2)cc1 (racemic) [Example 219, (3R,9S,13RS)-3-benzyl-7-(2-cyclohexylethyl)-9-isobutyl-16-methoxy-N-(4-methoxyphenethyl)-10-methyl-5,8,11,15-tetraoxo-2,3,4,5,6,7,8,9,10,11,12,13,14,15-tetradecahydrobenzo[p][1]oxa[4,7,10,14]tetraazacycloheptadecine-13-carboxamide] | – | – | 206 nM | 182% |
| COc1cccc(CCNC(=O)[C@@H]2CC(=O)N(C)[C@@H](CC(C)C)C(=O)N(C)CC(=O)N[C@H](Cc3ccccc3)COc3cccc(OC(F)(F)F)c3C(=O)N2)c1 [Example 317, (3R,9S,13S)-3-benzyl-9-isobutyl-N-(3-methoxyphenethyl)-7,10-dimethyl-5,8,11,15-tetraoxo-16-(trifluoromethoxy)-2,3,4,5,6,7,8,9,10,11,12,13,14,15-tetradecahydrobenzo[p][1]oxa[4,7,10,14]tetraazacycloheptadecine-13-carboxamide] | – | – | 661 nM | 89% |
